Data: patent publication US20130217655A1, “COMPOSITIONS FOR TREATING PSORIASIS OF THE SCALP” (Dermipsor Ltd., priority 2010, published 2013)

Assay: skin penetration of calcipotriol from the formulation
Conditions: calcipotriol in the present formulation, topical

For C=C1/C(=C\C=C2/CCC[C@]3(C)[C@@H]([C@H](C)/C=C/[C@@H](O)C4CC4)CC[C@@H]23)C[C@@H](O)C[C@@H]1O [Calcipotriol], the “penetration of the skin” value was “does not penetrate the skin”.
